# In patent US20140066385A1, “METHOD FOR TREATING CANCER BY COMBINED USE OF DRUGS” (Astellas Pharma Inc., priority 2011, published 2014):
# Tests used:
# [1] = test system: human ovarian cancer (MCAS); test: Example 12: FK330 with paclitaxel in MCAS tumor-bearing mice; assay type: in vivo, nude mice; conditions: FK330 100 mg/kg bid p.o. + paclitaxel 10 mg/kg/day i.v. (5 days each cycle)
# Method: The dose of FK330 is expressed in terms of the weight of a simple substance (non-hydrate). Paclitaxel was purchased from LC Laboratories, Inc. (Woburn, Mass., USA), and was used as paclitaxel.
# FK330 was suspended (20 mg/mL) in a 0.5% aqueous methyl cellulose solution (0.5% MC), and was orally administered. Paclitaxel was prepared into a stock solution at 10 mg/mL with an ethanol/cremophor solution (mixed at 1:1), and then the stock solution was diluted to 1 mg/mL with physiological saline for injection (Otsuka Pharmaceutical Group) immediately before administration and was intravenously administered through the tail vein.
# Human ovary cancer-derived MCAS (JCRB0240) was obtained from Health Science Research Resources Bank (HSRRB) and used. The cells were cultured under the conditions of 37° C. and 5% CO2 by using EMEM medium containing 20% fetal bovine serum (FBS). […]
# The body weight and the tumor diameter, determined by using a digital caliper, were measured twice a week. The tumor volume was calculated from the calculation formula for ellipsoid volume of (major axis×[minor axis]^2×0.5).
# The results are expressed as the mean value (Mean)±standard error (SEM). […]
# [2] = test system: chronic rejection, rat aorta transplantation; conditions: reported in Non-Patent Document 2; cited from earlier work
# [3] = molecular target: T1, purified pig brain-derived tubulin (Sus scrofa, UniProt P02550+P02554); test: Example 7: fluorescence-based assay of tubulin polymerization reaction; assay type: biochemical; conditions: paclitaxel final concentration 3 μmmol/L; 60 minutes after initiation; P<0.05
# T1 construct: purified pig brain-derived tubulin (final concentration: 2 mg/mL); purchased Cytoskeleton, Inc. (Denver, Colo., USA); host or cells: pig brain (tissue-purified)
# T1 sequence (P02554 whole entry): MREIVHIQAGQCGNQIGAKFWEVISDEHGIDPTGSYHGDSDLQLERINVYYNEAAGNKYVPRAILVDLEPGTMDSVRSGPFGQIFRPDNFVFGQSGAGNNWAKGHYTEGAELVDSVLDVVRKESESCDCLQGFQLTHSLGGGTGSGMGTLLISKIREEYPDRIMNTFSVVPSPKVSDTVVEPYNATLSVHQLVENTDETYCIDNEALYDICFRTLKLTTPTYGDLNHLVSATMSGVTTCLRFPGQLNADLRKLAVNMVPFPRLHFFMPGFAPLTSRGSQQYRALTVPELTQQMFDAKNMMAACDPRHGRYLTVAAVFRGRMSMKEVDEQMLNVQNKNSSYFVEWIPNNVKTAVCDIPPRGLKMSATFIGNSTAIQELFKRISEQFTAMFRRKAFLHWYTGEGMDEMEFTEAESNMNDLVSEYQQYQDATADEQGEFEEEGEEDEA
# T1 sequence (P02550 whole entry): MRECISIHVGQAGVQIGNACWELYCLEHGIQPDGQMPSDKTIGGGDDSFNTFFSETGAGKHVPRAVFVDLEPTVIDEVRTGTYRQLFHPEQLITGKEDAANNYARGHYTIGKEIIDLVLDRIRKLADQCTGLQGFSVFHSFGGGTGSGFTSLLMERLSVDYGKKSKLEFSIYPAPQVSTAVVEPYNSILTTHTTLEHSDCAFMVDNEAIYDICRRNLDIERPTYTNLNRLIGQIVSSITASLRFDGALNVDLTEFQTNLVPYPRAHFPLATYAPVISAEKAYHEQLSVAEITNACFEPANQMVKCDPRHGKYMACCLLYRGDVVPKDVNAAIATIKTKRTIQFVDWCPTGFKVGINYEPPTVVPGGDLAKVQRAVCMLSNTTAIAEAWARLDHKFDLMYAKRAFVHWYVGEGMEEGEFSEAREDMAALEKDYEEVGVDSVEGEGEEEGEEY
# Method: S-nitroso-N-acetyl-D,L-penicillamine (SNAP), which is a NO donor, was purchased from Cayman Chemical Co. (Ann Arbor, Mich., USA) and used. A tubulin polymerization analysis kit was purchased from Cytoskeleton, Inc. (Denver, Colo., USA) and used. For paclitaxel, a paclitaxel included in the analysis kit was used as paclitaxel. Docetaxel was purchased from Sigma-Aldrich Co. (St. Louis, Mo., USA) and was used as docetaxel.
# A fluorescence-based assay of tubulin polymerization reaction was carried out according to the manufacturer's instruction of the kit. That is, purified pig brain-derived tubulin (final concentration: 2 mg/mL) and SNAP (final concentration: 200 or 500 μmol/L) were incubated at room temperature for 15 minutes or longer in the buffer solution included in the kit. Subsequently, paclitaxel (final concentration: 3 μmmol/L) or docetaxel (final concentration: 1 μmol/L), and […] (final concentration: 1 mmol/L) were added to this buffer mixture, and then was incubated for 60 minutes at 37° C. During this incubation, the fluorescence intensity (measurement wavelength: excitation 350 nm/fluorescence 435 nm) was measured every one minute by using a microplate reader (Spectramax, Molecular Devices, LLC, Sunnyvale, Calif., USA). The value of fluorescence intensity was expressed as a percentage relative to the SNAP and taxane-untreated group by using the value obtained 60 minutes after the initiation of the reaction, which corresponded to the equilibrium steady-state phase, and the average value for three experiments was taken as the value.
# The results are expressed as the mean value (Mean)±standard error (SEM) of five independent experiments. A comparison between a paclitaxel- or docetaxel-treated group and an untreated group was carried out by an unpaired statistical test (Student's t-test) of the difference between two groups. A comparison between a SNAP-untreated group (control group) and SNAP-treated groups (200 μmol/L and 500 μmol/L) in the presence or absence of the taxane-family drugs was carried out by Dunnett's multiple comparison test. A difference value of less than 5% was considered to be statistically significant. For the data processing, Graphpad Prism version 5.03 was used.
tubulin polymerization (fluorescence intensity) as compared with the taxane-untreated group [3] [%],SMILES,"tumor volume reduction ratio compared with the paclitaxel-only group ([1]; Day 63, no significant difference) [%]","tumor volume reduction ratio compared with the paclitaxel-only group ([1]; Day 91, P<0.05) [%]",efficacy in chronic rejection model for rat aorta transplantation [2]
–,"O=C(/C=C/c1ccc(Cl)cc1)N[C@@H](Cc1ccccn1)C(=O)NCC(=O)N1CCC(Oc2cc(C(F)(F)F)ncn2)CC1 [FK330, N^2-[(2E)-3-(4-chlorophenyl)-2-propenoyl]-N-[2-oxo-2-(4-{[6-(trifluoromethyl)pyrimidin-4-yl]oxy}piperidin-1-yl)ethyl]-3-pyridin-2-yl-L-alaninamide]",61.5,86.0,effective
152.7,"CC(=O)O[C@H]1C(=O)[C@@]2(C)[C@H]([C@H](OC(=O)c3ccccc3)[C@]3(O)C[C@H](OC(=O)[C@H](O)[C@@H](NC(=O)c4ccccc4)c4ccccc4)C(C)=C1C3(C)C)[C@]1(OC(C)=O)CO[C@@H]1C[C@@H]2O [paclitaxel, reference compound]",–,–,–
